Like-named read-outs stand apart in the source and are kept apart here. Marks after values point to notes of the source that are not given here.
Experiments:
[1] = system: patients with advanced hematologic malignancies (cohort 1: AML/MDS; cohort 2: CLL/MCL); format: in vivo, human
Text: AEs were coded in accordance with The Medical Dictionary for Regulatory Activities, version 16.1. Treatment-emergent AEs (TEAEs) were defined as AEs that were new, increased in frequency, or worsened in severity, after the first talazoparib dose. AEs counted as drug-related had been classified by investigators as possibly or probably related to talazoparib.
All analyses in this open-label, dose-finding study were descriptive in nature. Descriptive summaries of continuous variables, including the mean, standard deviation (SD), median, range, and, where appropriate, 95% CI and/or interquartile range, were determined using the Statistical Analysis Software (SAS), version 9.2. Descriptive summaries of categorical variables included the number of patients and percentages. Data were summarized with respect to the dose level at which the patients started treatment. Cohorts were defined as all patients who began treatment at a given dose level.

[2] = Plasma pharmacokinetics after multiple daily talazoparib dosing; format: in vivo, human
Protocol: (§1) Plasma and urine samples were assayed for talazoparib concentrations by Covance Laboratories Inc., using validated high performance liquid chromatography with tandem mass spectrometry detection methods. The lower limits of quantitation for […] and urine were 5.0 pg/ml and 25.0 pg/ml, respectively. Evaluated PK parameters included maximum concentration (Cmax), minimum concentration (Cmin), time to maximum plasma concentration (Tmax), area under the curve from time 0 to last measurable concentration (AUC0–t), area under the curve from time 0 to 24 h post-dose (AUC0–24), amount of drug excreted into the urine from time 0 to 24 h (Ae0–24), fraction of administered drug excreted in the urine from time 0 to 24 h (Fe0–24), and average renal clearance from time 0 to 24 h (ARC0–24); ARC0–24 was calculated as (Ae0–24/AUC0–24). PK parameters were calculated using Phoenix™ WinNonlin® 6.1.
(§2) Summary statistics for plasma and urine talazoparib concentrations and PK parameters were calculated by grouping subjects in cohorts 1 and 2 together to provide a larger sample size at each dose level.

[3] = Urine pharmacokinetics after multiple daily talazoparib dosing; format: in vivo, human
Protocol: as §1, §2

[4] = system: advanced hematologic malignancies (AML, MDS, CLL, MCL); assay: Anti-leukemic activity (best overall response); format: in vivo, human
Protocol: Objective response, duration of objective response, and time to progression or treatment failure were recorded. Response was measured by the following response criteria: the European leukemiaNet for subjects with AML [30], the International Working Group for Prognosis in MDS for subjects with MDS [31, 32], the International Workshop on Chronic Lymphocytic leukemia (iwCLL) for subjects with CLL, and the Revised Response Criteria for MCL [34].

[5] = system: germline BRCA1/2-mutated HER2- advanced breast cancer; parameters: method as in PMID 30110579; conditions: 1 mg once daily; cited from earlier work
PARP = system: PARP; parameters: method as in PMID 28302823, PMID 24356813, PMID 32241924; conditions: in vitro; cited from earlier work
[6] = system: patients with germline BRCA1/2 mutations and solid tumors; conditions: NCT01286987; cited from earlier work
[7] = 1.35 mg/day, cycle 2 day 1, plasma, n = 3, median (range)
[8] = 1.35 mg/day, multiple daily dosing, urine, n = 2, geometric mean (geometric CV%)

For `Cn1ncnc1[C@H]1c2n[nH]c(=O)c3cc(F)cc(c23)N[C@@H]1c1ccc(F)cc1` [talazoparib], the “Any study drug-related AEs of CTCAE Grade 5 (death)” value (shortened to “Any study drug-related AEs”) ([1]; Cohort 2, 0.10 mg/day (n = 3)) was 0 (0.0) n (%), the “Any AEs of CTCAE Grade of 5 (death)” value ([1]; Cohort 2, 0.90 mg/day (n = 5)) was 0 (0.0) n (%) and the “Any study drug-related AEs” value ([1]; Cohort 2, 0.90 mg/day (n = 5)) was 0 (0.0) n (%). The “Any AEs of CTCAE Grade of 5 (death)” value ([1]; Cohort 2, All (n = 8)) was 1 (12.5) n (%), the “Any study drug-related AEs” value ([1]; Cohort 2, All (n = 8)) was 0 (0.0) n (%) and the Deaths ([1]; both cohorts, N = 33, during study or within 30 days after last dose) was 39.4%. For the same compound, the “Patients with Grade 3/4 TEAEs” value ([1]; human, in vivo) was 84.8%, the “Patients with TEAEs leading to dose interruption/reduction related to study drug” value ([1]; human, in vivo) was 30.3% and the “Patients with a Grade 3/4 SAE” value ([1]; human, in vivo) was 51.5%. The “Patients with a drug-related SAE” value ([1]; human, in vivo) was 9.1%, the “Patients with at least one TEAE leading to dose interruption and/or reduction” value ([1]; human, in vivo) was 45.5% and the “Patients with drug-related Grade 3/4 TEAEs” value ([1]; human, in vivo) was 42.4%. For the same compound, the “Patients with drug-related TEAEs (possibly or probably related)” value ([1]; human, in vivo) was 69.7%, the “Patients with serious AEs (SAEs)” value ([1]; human, in vivo) was 75.8% and the “TEAE: Fatigue” value ([1]; n = 33, All grades (Grade 1–4 only)) was 13 (39.4) n (%). For the same compound, the “AR (accumulation ratio)” value [2, 7] was 3.80 (3.28, 4.22), the Tmax [2, 7] was 1.03 (1.00, 4.00) hr and the AUC(0-t) ([2]; human, in vivo, 1.35 mg/day, cycle 2 day 1, plasma, n = 3, geometric mean (geometric CV%), read-out: AUC0–24) was 226 ng·h/mL. For the same compound, the AUC(0-t) ([2]; human, in vivo, 1.35 mg/day, cycle 2 day 1, plasma, n = 3, geometric mean (geometric CV%), read-out: AUC0–t) was 225 ng·h/mL, the Cmax ([2]; human, in vivo, 1.35 mg/day, cycle 2 day 1, plasma, n = 3, geometric mean (geometric CV%)) was 19.7 ng/mL and the “Total exposure vs dose” value ([2]; in vivo) was “dose-proportional increases in total exposure”. The “Ae0–24” value [3, 8] was 0.531 (29.8) mg, the “Fe0–24 (fraction of administered drug excreted in urine)” value [3, 8] was 0.393 (29.8) and the Major clearance pathway ([3]; human, in vivo) was “urinary elimination is the major clearance pathway”. For the same compound, the “Stable disease (best overall response)” value ([4]; Cohort 1, AML (n = 21)) was 9 (42.9) n (%), the “Stable disease ≥16 weeks” value ([4]; Cohort 1, AML (n = 21)) was 2 (9.5)^‡ n (%) and the “Stable disease (best overall response)” value ([4]; Cohort 1, All (n = 25)) was 13 (52.0) n (%). For the same compound, the “Stable disease ≥16 weeks” value ([4]; Cohort 1, All (n = 25)) was 5 (20.0) n (%), the “Stable disease (best overall response)” value ([4]; Cohort 1, MDS (n = 4)) was 4 (100) n (%) and the “Stable disease ≥16 weeks” value ([4]; Cohort 1, MDS (n = 4)) was 3 (75.0)^§ n (%). The “Stable disease (best overall response)” value ([4]; Cohort 2, All (n = 8)) was 5 (62.5) n (%), the “Stable disease ≥16 weeks” value ([4]; Cohort 2, All (n = 8)) was 1 (12.5) n (%) and the “Stable disease (best overall response)” value ([4]; Cohort 2, CLL (n = 4)) was 3 (75.0) n (%). The “Stable disease ≥16 weeks” value ([4]; Cohort 2, CLL (n = 4)) was 0 n (%), the “Stable disease (best overall response)” value ([4]; Cohort 2, MCL (n = 4)) was 2 (50.0) n (%) and the “Stable disease ≥16 weeks” value ([4]; Cohort 2, MCL (n = 4)) was 1 (25.0) n (%). For the same compound, the “Patients with stable disease” value ([4]; both cohorts, N = 33) was 54.5%, the “Stable disease of at least 16 weeks' duration” value ([4]; both cohorts, N = 33) was “six” and the Transfusion independence ([4]; one with MDS and one with AML) was “two”. For the same compound, the “Progression-free survival compared with physician's choice of chemotherapy” value [5] was “significantly longer progression-free survival”, the “PARP-trapping activity compared with other PARP inhibitors” value (PARP) was “higher PARP-trapping activity” and the “Maximum tolerated dose (MTD)” value [6] was 1 mg once daily.

Source: paper PMC8609999, “A Phase I trial of talazoparib in patients with advanced hematologic malignancies” (International Journal of Hematologic Oncology, 2021)
